Data on three compounds can be found in patent publication US8436002B2, “AKT inhibitors” (Eli Lilly and Company, priority 2009, dated 2013).

Read-outs that look alike come from different tables or passages of the source.

The test system of one experiment is AKT. Kind of experiment: AKT In Vivo Target Inhibition (Oral and Parenteral), U87MG tumors in athymic nude mice. The conditions noted are these: Mus musculus, U-87 MG, after 2 hours at 12.5 mg/kg, mean of 6 animals per group. As for the experimental part:
U87MG human glioblastoma cells (5×106) are subcutaneously implanted into the flank of athymic nude mice in 0.2 mL of matrigel. Two weeks post-implantation, mice are dosed orally or parenterally according to a time course, single dose/single time point, or dose response protocol for the determination of TMED50 (threshold minimum effective dose). Tumors are flash frozen at harvest and blood is collected for the determination of parent compound plasma exposure and the calculation of TMEC50 (threshold minimum effective concentration) in the case of dose response studies. Tumors or tissues are pulverized in liquid N2 and lysed in 400 μL of XY Lysis Buffer (10 μg/mL Leupeptin, 10 μg/mL Trypsin-Chymotrypsin Inhibitor, 10 μg/mL Tosyl phenyl-alanyl chloromethyl ketone, 10 μg/mL Aprotinin, 60 mM Beta-Glycerol Phosphate, 1% Triton X100, 25 mM Tris pH 7.5, 2.5 mM Pyrophosphate, 150 mM NaCl, 2 mM p-tosyl-L-arginine methyl ester, 15 mM para-nitrophenyl phosphate, 5 mM Benzamidine, 1 mM Na Vanadate, 10 mM NaF, 50 μg/mL phenyl-methane sulfonyl fluoride, 1 mM 1,4-Dithiothreitol (DTT), 15 mM EDTA pH 8.0, 5 mM EGTA pH 8.0, 1 μM Microcystin, 1 μM Okadaic Acid, and 1 Roche Complete protease inhibitor mini-tablet per 10 mL) using Lysing Matrix D tubes (MP Biomedicals, Solon, Ohio, cat #6913-500) and a BIO101 Thermo Savant Fast Prep FP12. Lysates are aliquoted and either assayed immediately or stored at −80° C. for later testing. In Vivo Target Inhibition of AKT is measured utilizing Meso Scale Discovery (Gaithersburg, Md.) ELISA technology to assess effects on phosphorylation of the downstream effectors FOXO, PRAS40 and GSK3β(S9). In summary, 20 μg of lysate is added to carbon electrode containing 96-well plates pre-spotted with the appropriate capture antibodies. The protein of interest is probed using a ruthenium labeled detection antibody. Upon the passage of current over the electrode in the presence of read buffer containing the co-reactant TPA, electro-chemiluminescence results in the generation of light which is quantified and recorded using the MSD Sector 6000 instrument. For each study, percent inhibitions are calculated relative to the vehicle control group and ANOVA analysis is performed using the JMP software package for the determination of statistical significance.

Experiment [1] deals with T1, ROCK2 Human recombinant enzyme (Homo sapiens, UniProt O75116).
T1 construct: ROCK2 Human recombinant enzyme (residues 11-552, histidine-tagged, expressed in insect cells); His tag; host or cells: insect cells
T1 sequence (O75116 11-552): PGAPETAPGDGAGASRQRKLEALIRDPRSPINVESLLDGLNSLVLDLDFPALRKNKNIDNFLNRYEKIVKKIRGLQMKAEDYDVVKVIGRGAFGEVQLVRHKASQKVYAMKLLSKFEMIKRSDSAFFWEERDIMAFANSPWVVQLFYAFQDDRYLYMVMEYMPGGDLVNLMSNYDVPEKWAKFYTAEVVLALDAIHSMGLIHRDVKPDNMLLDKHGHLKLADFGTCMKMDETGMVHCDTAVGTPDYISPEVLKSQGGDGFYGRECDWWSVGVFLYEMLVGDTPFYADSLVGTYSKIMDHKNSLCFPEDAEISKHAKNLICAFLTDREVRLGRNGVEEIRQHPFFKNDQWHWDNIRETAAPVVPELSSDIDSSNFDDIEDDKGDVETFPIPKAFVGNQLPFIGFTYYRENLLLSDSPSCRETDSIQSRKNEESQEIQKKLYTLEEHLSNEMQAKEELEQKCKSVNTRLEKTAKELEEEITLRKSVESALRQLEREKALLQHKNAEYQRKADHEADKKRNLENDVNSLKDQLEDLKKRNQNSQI
The experiment can be described thus: ROCK2 In Vitro Enzyme Assay (Transcreener Kinase ADP-FP). The conditions noted are these: 10 micromolar ATP; read-out: IC50 against ROCK2. The class given is biochemical. As for the experimental part:
Compound IC50 values against ROCK2 kinase are determined using the ROCK2 Transcreener™ Kinase ADP-FP Assay. This assay assesses the activity of ROCK2 in the presence of compound inhibitors by measuring the concentration of ADP formed in a kinase reaction. The kinase reactions (25 μL reaction volumes) are performed in 96-well half-area black polystyrene plates. Enzyme is added to start the reactions. Final reaction conditions are 20 millimolar 3-(N-Morpholino)-propanesulfonic acid pH 7.4, 4 millimolar beta-glycero-phosphate, 0.01% TRITON™ X-100, 5 millimolar magnesium chloride, 25 micromolar peptide substrate (sequence RFARKGSLRQKNV (SEQ ID NO:1)), 10 micromolar ATP, ROCK2 Human recombinant enzyme (residues 11-552, histidine-tagged, expressed in insect cells), 4% dimethysulfoxide and serial dilutions of compound (diluted 1:3 from 20,000 to 1 nanomolar). […] Quenched reactions are incubated for 4-16 hours, and then read in a Tecan Ultra Evolution plate reader in Fluorescence Polarization mode using polarizing filters of Ex612 nm and Em633 nm wavelength. […] The IC50 value for each compound is derived using percent inhibition data which is calculated using the micromolar ADP reaction data relative to on-plate controls (active enzyme versus 100 millimolar EDTA-inhibited enzyme controls). […]

For experiment [2], the system named is phosphorylated GSK3β (S9) in U87MG cells. Kind of experiment: AlphaScreen SureFire detection of phosphorylated GSK3β (S9) in U87MG cells. The class given is cell-based. Conditions: Homo sapiens, U-87 MG, 1 hour, read-out: IC50, formation of phosphorylated GSK3β (S9). How it is done:
The effect of compounds on the formation of endogenous phosphorylated GSK3β serine 9 (pGSK3β) are measured using the AlphaScreen SureFire® for pGSK3β(TGRGBS10K). This is a homogeneous assay format using immuno-sandwich capture of the phosphorylated analyte followed by detection using antibody-coated Alphascreen beads to generate an amplified signal.
U87MG cells are maintained in U87MG growth medium consisting of DMEM supplemented with 10% Fetal bovine serum, 1% Nonessential amino acids and 1% sodium pyruvate. For the assay, cells are harvested by standard procedures and then counted using Vi-Cell. Cells (50,000/well) are plated in 100 μL of U87MG growth medium into Costar #3596 96 well plates. Plates are incubated overnight at 37° C., 5% CO2.
On the day of the assay, cells are treated with 20 μL/well compound diluted in media containing 6% dimethylsulfoxide. […] The plate is sealed with foil, incubated at room temperature for 4 hours with gentle shaking and then read on Perkin Elmer EnVision equipped with a TurboModule using standard AlphaScreen® settings (Ex680 nm and Em520-620 nm). The percent inhibition determined from controls on each plate and ten-point compound concentration data are then fit to a four-parameter logistic equation using ACTIVITYBASE 4.0 (Assay Guidance Manual Version 5.0, 2008, Eli Lilly and Company and NIH Chemical Genomics Center).

In a further experiment the target is T2, hAKT1 Human Recombinant (Homo sapiens, UniProt P31749).
T2 construct: His tag; host or cells: insect cells
T2 sequence (P31749 whole entry): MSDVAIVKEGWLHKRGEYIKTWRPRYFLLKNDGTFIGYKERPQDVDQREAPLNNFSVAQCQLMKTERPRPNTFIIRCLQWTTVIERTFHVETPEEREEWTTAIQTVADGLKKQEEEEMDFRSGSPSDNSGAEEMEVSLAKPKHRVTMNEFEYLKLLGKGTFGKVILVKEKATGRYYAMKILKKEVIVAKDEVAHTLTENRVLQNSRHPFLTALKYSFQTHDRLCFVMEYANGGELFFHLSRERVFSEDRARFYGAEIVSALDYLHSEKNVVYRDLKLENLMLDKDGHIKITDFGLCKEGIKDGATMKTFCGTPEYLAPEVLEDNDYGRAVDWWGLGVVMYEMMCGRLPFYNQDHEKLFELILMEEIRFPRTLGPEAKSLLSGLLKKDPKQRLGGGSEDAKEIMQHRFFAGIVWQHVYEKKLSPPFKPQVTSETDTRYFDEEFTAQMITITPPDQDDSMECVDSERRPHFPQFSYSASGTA
Kind of experiment: AKT1 In Vitro Enzyme Assay (Transcreener Kinase ADP-FP). In kind it is biochemical. The conditions noted are these: 20 micromolar ATP; read-out: IC50 against AKT1. How it is done:
Compound IC50 values against AKT1 target are determined using the AKT1 Transcreener™ Kinase ADP-FP Assay. This assay assesses the activity of AKT1 in the presence of compound inhibitors by measuring the concentration of adenosine diphosphate (ADP) formed in a kinase reaction. The kinase reactions (25 μL reaction volumes) are performed in 96-well half-area black polystyrene plates. Adenosine triphosphate (ATP) is added to start the reactions. Final reaction conditions are 56 millimolar N-2-hydroxyethylpiperazine-N′-2-ethanesulfonic acid (HEPES) pH 7.4, 0.008% TRITON™ X-100, 5 millimolar magnesium chloride, 30 micromolar Crosstide peptide, 20 micromolar ATP, hAKT1 Human Recombinant, V-AKT Murine Thymoma Viral Oncogene Homolog 1, histidine-tagged, expressed in insect cells, 4% dimethylsulfoxide and serial dilutions of compound (diluted 1:3 from 20,000 to 1 nanomolar). […] Quenched reactions are incubated for 4-16 hours, and then read in a Tecan Ultra Evolution plate reader in Fluorescence Polarization mode using polarizing filters of Ex612 nm and Em633 nm wavelength. […] The IC50 value for each compound is derived using percent inhibition data which is calculated using the micromolar ADP reaction data relative to on-plate controls (active enzyme versus 100 millimolar inhibited enzyme controls). […]

The next experiment concerns H1155. Kind of experiment: Cell proliferation combination study (CellTiter-Glo). The class given is cell-based. As for the experimental part: (§1) The proliferation assay uses the CellTiter-Glo Luminescent Cell Viability Assay System (commercially available from Promega) to determine the cell number of viable cells in culture based on quantitation of the ATP present, which signals the presence of metabolically active cells.
(§2) The cells are plated in 96-well plate at 2000 cells/well in volume of 50 μL medium (DMEM, 10% FBS, 25 mM HEPES, 1.0 mM Sodium Pyruvate, and 0.1 mM Non Essential Amino Acids) except column 1 with medium only as blank control. The plates are incubated overnight at 37° C. and 5% CO2. On the next day, compound stocks are prepared at 40 mM in DMSO (500×) and serially diluted in DMSO in a 96-well round bottom polypropylene plate. Compounds are assayed at 10 concentrations in duplicate, 4 compounds per plate.
(§3) 4 μL of the serial DMSO dilutions are transferred to a 96 deep-well plate and 1 mL complete culture medium is added to create 2× stock for dosing. 50 μL of each 2× dosing stock is gently transferred to the corresponding well of the cell plate resulting in a 0.2% DMSO concentration and a 100 μL final volume. […] medium are added to the Control columns (Column 12) and background columns (Column 1). Cells are incubated with compound for at 37° C., 5% CO2 for 72 hr.
(§4) After incubation, 100 μL of the pre-prepared CellTiter-Glo reagent (Promega, Cat: G7571) is added in each well and then the cells are homogenized by mixing on an orbital shaker for 2 min and incubated at RT for 10 minutes to allow luminescent signal stabilization Luminescent raw data is recorded on Wallac Victor V plate reader and the IC50 value for each compound is generated using percent inhibition data. A four-parameter logistic curve is fit to each dose response.
(§5) Combination studies use the fixed ratio method, where the other therapeutic agent and the compound of the present invention are present in fixed ratios of concentrations corresponding to the IC50 equivalents of single agents. The read out for the combination studies is cell proliferation in respective cell lines using Cell Titer Glo reagents. Controls are processed similarly but without the compounds. Analysis of the data is done according to the method described in Zhao et. Al. (Clinical Cancer Research 10, 7994-8004, Dec. 1, 2004) utilizing an internally developed web based tool. A combination index is calculated for each cell proliferation inhibition activity level according to the equation below. Combination Index at activity level x=[Concentration of other therapeutic agent in the combination at the activity level x/ICx of the other therapeutic agent]+[Concentration of the compound of the present invention in the combination at the activity level x/ICx of the compound of the present invention]
Background: In ATP-based viability assays light output follows the ATP content of the culture.

For the next experiment, the system named is MDA-MB-231. Described as above. The class given is cell-based. Conditions: with Paclitaxel. As for the experimental part:
as §1, §2, §3, §4, §5

In the next experiment the test system is MCF-7. The experiment is described as above. The class given is cell-based. The conditions noted are these: with Paclitaxel. As for the experimental part: as §1, §2, §3, §4, §5

Regarding `CCc1cn(CCN2CCCC2)c(C2CCN(c3ncnc4c3[C@H](C(F)(F)F)CC(=O)N4)CC2)n1` [Example 26, (R)-4-(4-(4-ethyl-1-(2-(pyrrolidin-1-yl)ethyl)-1H-imidazol-2-yl)piperidin-1-yl)-5-(trifluoromethyl)-5,6-dihydropyrido[2,3-d]pyrimidin-7(8H)-one], the inhibition at 12.5 mg/kg in the experiment on AKT (read-out: Mean % Inhibition FOXO3a (T32)) turned out to be 36.8%; in the experiment on AKT (read-out: Mean % Inhibition pAKT (S473)), 21.7%; with AKT (read-out: Mean % Inhibition pGSK3β (S9)), 34.4%; with AKT (read-out: Mean % Inhibition pPRAS40 (T246)), 8.1%.

On to `C[C@@H]1CC(=O)Nc2ncnc(N3CCC(c4nc(Cl)cn4CCN4CCCC4)CC3)c21` [Example 41, (R)-4-(4-(4-chloro-1-(2-(pyrrolidin-1-yl)ethyl)-1H-imidazol-2-yl)piperidin-1-yl)-5-methyl-5,6-dihydropyrido[2,3-d]pyrimidin-7(8H)-one], for which the figures for the IC50 (in experiment [1]; in experiment [2]; at hAKT1 Human Recombinant) were > 20000 nM, 1500 nM and 17 nM, respectively.

Regarding `C[C@@H]1CC(=O)Nc2ncnc(N3CCC(c4nc(C5CCOCC5)cn4CCN4CCCC4)CC3)c21` [Example 73, (R)-5-Methyl-4-(4-(1-(2-(pyrrolidin-1-yl)ethyl)-4-(tetrahydro-2H-pyran-4-yl)-1H-imidazol-2-yl)piperidin-1-yl)-5,6-dihydropyrido[2,3-d]pyrimidin-7(8H)-one], the “Combination Index at 50% Inhibition” value is on record as 0.82 with H1155 (with Cisplatin); 0.87 with H1155 (with Gemcitabine); 0.29 with H1155 (with Pemetrexed); 1.25 in the experiment with MDA-MB-231; 0.56 in the experiment with MCF-7.

By inhibition is commonly meant the change of the read-out against control, counted positive when it falls. For orientation: IC50 means the concentration that inhibits the measured activity by half.
